Article PMC4278837, “A Cyclic Peptidic Serine Protease Inhibitor: Increasing Affinity by Increasing Peptide Flexibility” (PLoS ONE, 2014)
Like-named read-outs stand apart in the source and are kept apart here. Bridge positions count the residues as written; N and C are the ends. Square brackets hold non-standard residues; d marks the D form. Peptide text beside a SMILES is read from it. Ala(1-amidino-4-piperidyl) = N=C(N)N1CCC(C[C@H](N)C(=O)O)CC1

What was measured:
huPA-H99Y [1] = target: T1, huPA-H99Y (Homo sapiens, UniProt P00749, H272Y); experiment: Surface plasmon resonance analysis of peptide binding to huPA-H99Y; details: SPR; for koff: read-out: koff of fitted curve, representative sensorgram; for kon: read-out: kon of fitted curve, representative sensorgram
T1 construct: To ensure that the uPAs purified from the conditioned media were completely in the two-chain form, they were treated with plasmin; hexa-His (C); made in house; host or cells: HEK293 6E suspension cells
Method: (§1) Surface plasmon resonance (SPR) analysis
(§2) To determine the equilibrium binding constants (KD), the association rate constants (kon) and dissociation rate constants (koff) for peptide binding to uPA, surface plasmon resonance analysis was performed on a Biacore T200 instrument (Biacore, Uppsala, Sweden). A CM5 chip was coupled with the uPA variant (muPA or huPAH99Y) to be analysed, by injecting a concentration of 30 µg/mL uPA in immobilization buffer (10 mM sodium acetate, pH 5.0), aiming for an immobilised level of approximately 500 response units (RU). Immobilisation was followed by surface blocking with ethanolamine. A reference cell was prepared in the same way, without coupling of uPA. Mupain-1 variants in HBS with 0.1% BSA, in a dilution series, were injected at a flow rate of 30 µL per min during 60 s at 25°C. Subsequently, the dissociation was monitored during 600 s. Kinetic constants (k on and k off) were calculated with the Biacore Evaluation Software, using the 1∶1 kinetic fit. The K D values were calculated as k off /k on.

huPA-H99Y [2] = target: T2, huPA-H99Y (Homo sapiens, UniProt P00749, C299A/H272Y/N322Q); experiment: Isothermal titration calorimetry for binding to huPA-H99Y catalytic domain; details: ITC, 25°C, pH 7.4
T2 construct: recombinant uPA catalytic domain (residues 159–411), harbouring a H99Y mutation; made in house; host or cells: Pichia pastoris X-33 (secreted)
Method: For these experiments, we used the catalytic domain of huPA-H99Y expressed in and purified from Pichia pastoris strain X-33 (see above). The protein was dissolved in and dialysed against a buffer of 20 mM sodium phosphate, pH 7.4, 140 mM NaCl. The protein concentration was determined by absorbance at 280 nm, using an extinction coefficient of 43810 M^−1cm^−1. The peptides were dissolved in the above-mentioned buffer. All isothermal titration calorimetry experiments were performed with a MicroCal^TM ITC200 instrument equilibrated to a temperature of 25°C (298oK). The concentration of uPA-H99Y catalytic domain used in the 200 µl sample cell was 5–50 µM, depending on the affinity of the ligand. Titrations were performed by injecting 2 µl of the ligand until the total syringe volume of 40 µl was spent. Titration of ligand into buffer was performed to obtain buffer correction. The equilibrium association constant KA and the reaction enthalpy ΔH were calculated by fitting the integrated titration peaks using a one-binding-site model in the ITC ORIGIN7 programme package. The following formulas for Gibbs free energy ΔG were used to analyse the measured energies
[drawing 4] (4) where R is the gas constant and T the absolute temperature. ΔS, the entropic change during the reaction, was calculated using equations 3 and 4 and the measured K A and ΔH values.

muPA = target: T3, muPA (Mus musculus, UniProt P06869); experiment: Surface plasmon resonance analysis of peptide binding to muPA; parameters: species or system murine; details: SPR, 25°C, pH 7.4
T3 construct: To ensure that the uPAs purified from the conditioned media were completely in the two-chain form, they were treated with plasmin; hexa-His (C); made in house; host or cells: HEK293 6E suspension cells
T3 sequence (P06869 180-433 limits assumed): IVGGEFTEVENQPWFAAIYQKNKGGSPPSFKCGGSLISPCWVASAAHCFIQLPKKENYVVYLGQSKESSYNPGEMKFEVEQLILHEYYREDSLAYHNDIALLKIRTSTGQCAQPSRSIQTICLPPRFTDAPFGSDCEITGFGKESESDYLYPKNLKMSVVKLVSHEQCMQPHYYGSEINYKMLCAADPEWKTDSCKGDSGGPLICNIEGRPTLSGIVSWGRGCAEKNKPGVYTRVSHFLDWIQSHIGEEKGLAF
T3 sequence (P06869 21-178 partner limits assumed): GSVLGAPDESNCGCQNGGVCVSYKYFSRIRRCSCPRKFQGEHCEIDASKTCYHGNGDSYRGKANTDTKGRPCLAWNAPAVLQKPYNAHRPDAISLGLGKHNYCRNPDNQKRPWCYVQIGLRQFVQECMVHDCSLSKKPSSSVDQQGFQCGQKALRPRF
Method: as §1, §2

huPA-H99Y K143A = target: T4, huPA-H99Y K143A (Homo sapiens, UniProt P00749, H272Y/K320A); experiment: Ki for inhibition of huPA-H99Y-K143A, chromogenic substrate; type: biochemical
T4 construct: To ensure that the uPAs purified from the conditioned media were completely in the two-chain form, they were treated with plasmin; hexa-His (C); made in house; host or cells: HEK293 6E suspension cells
Source text: (§3) Determination of Ki values
(§4) The initial reaction velocities were monitored at an absorbance of 405 nm. The inhibition constants (K i) were subsequently determined from the non-linear regression analyses of plots for V i/V o versus [I]0, using Equation 2, derived under assumption of competitive inhibition:
(§5) [drawing 2] (2) where V i and V 0 are the reaction velocities in the presence and absence of inhibitor, respectively; [S]0 and [I]0 are the substrate and inhibitor concentrations, respectively; K M is K M for substrate hydrolysis by each protease. In Equation 2, it is assumed that [S]free ≈ [S]0 and [I]free ≈ [I]0.

huPA-H99Y R35A = target: T5, huPA-H99Y R35A (Homo sapiens, UniProt P00749, H272Y/R198A); experiment: Ki for inhibition of huPA-H99Y-R35A, chromogenic substrate; type: biochemical
T5 construct: To ensure that the uPAs purified from the conditioned media were completely in the two-chain form, they were treated with plasmin; hexa-His (C); made in house; host or cells: HEK293 6E suspension cells
Source text: as §3, §4, §5

muPA K143A = target: T6, muPA K143A (Mus musculus, UniProt P06869, K322A); experiment: Ki for inhibition of muPA-K143A, chromogenic substrate; type: biochemical, murine; details: means ± S.D.; read-out: K i for inhibition of muPA-K143A
T6 construct: To ensure that the uPAs purified from the conditioned media were completely in the two-chain form, they were treated with plasmin; hexa-His (C); made in house; host or cells: HEK293 6E suspension cells
T6 sequence (P06869 180-433 K322A): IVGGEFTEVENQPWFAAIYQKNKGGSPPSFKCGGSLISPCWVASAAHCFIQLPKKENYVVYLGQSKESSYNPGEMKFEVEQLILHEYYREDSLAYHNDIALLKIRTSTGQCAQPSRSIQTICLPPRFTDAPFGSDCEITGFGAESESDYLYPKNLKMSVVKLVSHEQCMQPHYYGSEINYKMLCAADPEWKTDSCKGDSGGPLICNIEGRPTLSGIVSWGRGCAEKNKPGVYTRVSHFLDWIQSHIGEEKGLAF
T6 sequence (P06869 21-178 partner limits assumed): as the sequence (P06869 21-178 partner limits assumed) above
Source text: as §3, §4, §5

muPA V213T = target: T7, muPA V213T (Mus musculus, UniProt P06869, V396T); experiment: Ki for inhibition of muPA-V213T, chromogenic substrate; type: biochemical, murine
T7 construct: To ensure that the uPAs purified from the conditioned media were completely in the two-chain form, they were treated with plasmin; hexa-His (C); made in house; host or cells: HEK293 6E suspension cells
T7 sequence (P06869 180-433 V396T): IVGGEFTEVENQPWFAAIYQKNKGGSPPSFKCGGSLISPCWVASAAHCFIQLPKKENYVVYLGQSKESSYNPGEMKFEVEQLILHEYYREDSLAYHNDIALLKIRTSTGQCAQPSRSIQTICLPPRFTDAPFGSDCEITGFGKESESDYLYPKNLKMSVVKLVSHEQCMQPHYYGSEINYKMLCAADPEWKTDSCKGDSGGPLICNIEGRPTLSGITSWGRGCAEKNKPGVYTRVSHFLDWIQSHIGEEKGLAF
T7 sequence (P06869 21-178 partner limits assumed): as the sequence (P06869 21-178 partner limits assumed) above
Source text: as §3, §4, §5

huPA-H99Y Q192A = huPA-H99Y Q192A (Homo sapiens, UniProt P00749, H272Y/Q373A); experiment: Ki for inhibition of huPA-H99Y-Q192A, chromogenic substrate; type: biochemical; parameters: To ensure that the uPAs purified from the conditioned media were completely in the two-chain form, they were treated with plasmin; hexa-His (C); made in house; host or cells: HEK293 6E suspension cells
Source text: as §3, §4, §5

muPA S190A = target: T8, muPA S190A (Mus musculus, UniProt P06869, S373A); experiment: Ki for inhibition of muPA-S190A, chromogenic substrate; type: biochemical, murine
T8 construct: To ensure that the uPAs purified from the conditioned media were completely in the two-chain form, they were treated with plasmin; hexa-His (C); made in house; host or cells: HEK293 6E suspension cells
T8 sequence (P06869 180-433 S373A): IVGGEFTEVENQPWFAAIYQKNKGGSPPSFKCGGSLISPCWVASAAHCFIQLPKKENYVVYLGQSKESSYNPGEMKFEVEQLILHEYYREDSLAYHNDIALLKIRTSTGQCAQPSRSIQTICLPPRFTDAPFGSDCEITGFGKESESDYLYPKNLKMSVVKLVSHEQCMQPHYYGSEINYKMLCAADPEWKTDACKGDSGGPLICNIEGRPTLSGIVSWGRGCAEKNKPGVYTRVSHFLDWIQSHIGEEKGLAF
T8 sequence (P06869 21-178 partner limits assumed): as the sequence (P06869 21-178 partner limits assumed) above
Source text: as §3, §4, §5

muPA wt = target: T9, muPA wt (Mus musculus, UniProt P06869); details: cited from earlier work
T9 construct: To ensure that the uPAs purified from the conditioned media were completely in the two-chain form, they were treated with plasmin; hexa-His (C); made in house; host or cells: HEK293 6E suspension cells
T9 sequence (P06869 180-433 limits assumed): as the sequence (P06869 180-433 limits assumed) above
T9 sequence (P06869 21-178 partner limits assumed): as the sequence (P06869 21-178 partner limits assumed) above

muPA Y99A = target: T10, muPA Y99A (Mus musculus, UniProt P06869, Y274A); experiment: Ki for inhibition of muPA-Y99A, chromogenic substrate; type: biochemical, murine
T10 construct: To ensure that the uPAs purified from the conditioned media were completely in the two-chain form, they were treated with plasmin; hexa-His (C); made in house; host or cells: HEK293 6E suspension cells
T10 sequence (P06869 180-433 Y274A): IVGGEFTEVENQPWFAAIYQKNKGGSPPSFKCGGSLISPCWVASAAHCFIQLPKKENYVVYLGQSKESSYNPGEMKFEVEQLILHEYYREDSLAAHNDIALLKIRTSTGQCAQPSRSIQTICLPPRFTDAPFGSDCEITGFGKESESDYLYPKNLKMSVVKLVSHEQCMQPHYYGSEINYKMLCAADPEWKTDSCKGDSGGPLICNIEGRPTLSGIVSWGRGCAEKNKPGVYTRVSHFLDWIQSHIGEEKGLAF
T10 sequence (P06869 21-178 partner limits assumed): as the sequence (P06869 21-178 partner limits assumed) above
Source text: as §3, §4, §5

huPA-H99Y [3] = target: T1, huPA-H99Y; details: 37°C; means ± S.D.; starred values reproduced from previous publications; ref Andersen et al., 2008; Hosseini et al., 2011; read-out: K i for inhibition of huPA-H99Y; cited from earlier work
huPA-H99Y V41A = target: T11, huPA-H99Y V41A (Homo sapiens, UniProt P00749, H272Y/V208A); experiment: Ki for inhibition of huPA-H99Y-V41A, chromogenic substrate; type: biochemical
T11 construct: To ensure that the uPAs purified from the conditioned media were completely in the two-chain form, they were treated with plasmin; hexa-His (C); made in house; host or cells: HEK293 6E suspension cells
Source text: as §3, §4, §5

muPA K41A = target: T12, muPA K41A (Mus musculus, UniProt P06869, K210A); experiment: Ki for inhibition of muPA-K41A, chromogenic substrate; type: biochemical, murine
T12 construct: To ensure that the uPAs purified from the conditioned media were completely in the two-chain form, they were treated with plasmin; hexa-His (C); made in house; host or cells: HEK293 6E suspension cells
T12 sequence (P06869 180-433 K210A): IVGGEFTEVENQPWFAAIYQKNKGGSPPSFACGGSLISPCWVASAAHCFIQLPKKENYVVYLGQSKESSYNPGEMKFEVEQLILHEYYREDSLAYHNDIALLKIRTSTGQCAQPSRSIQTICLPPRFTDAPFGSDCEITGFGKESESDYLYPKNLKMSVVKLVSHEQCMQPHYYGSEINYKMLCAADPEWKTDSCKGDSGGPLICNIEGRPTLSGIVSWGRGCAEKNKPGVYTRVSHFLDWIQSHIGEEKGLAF
T12 sequence (P06869 21-178 partner limits assumed): as the sequence (P06869 21-178 partner limits assumed) above
Source text: as §3, §4, §5

[4] = huPA-H99Y immobilized on CM5 chip, single example (S3 Fig)

## CC(=O)N[C@H]1CSSC[C@@H](C(N)=O)NC(=O)[C@H](CC(=O)O)NC(=O)[C@H](CC(C)C)NC(=O)[C@H](Cc2ccc(O)cc2)NC(=O)[C@H](CCCNC(=N)N)NC(=O)[C@H](CO)NC(=O)[C@H](Cc2ccc(O)cc2)NC(=O)[C@H](C)NC(=O)[C@@H]2CCCN2C1=O [Mupain-1, CPAYSRYLDC] (Ac-CPAYSRYLDC-NH2; disulfide 1-10)
huPA-H99Y [1]; K D, huPA-H99Y, 25°C, pH 7.4, calculated as k off/k on
  Kd: 14.1 ± 2.4 µM
huPA-H99Y [1]; KD of fitted curve, representative sensorgram, huPA-H99Y immobilized on CM5 chip, single example (S3 Fig)
  Kd: 15.8 µM
huPA-H99Y [1]; 25°C, pH 7.4
  k off, huPA-H99Y: 80.2±7.6 (4) s^-1, ×10^2
  k on, huPA-H99Y: 0.569±0.103 (4) M^-1s^-1, ×10^-5
huPA-H99Y [1]; [4]
  koff: 0.803 s⁻¹
  kon: 50900 M⁻¹ s⁻¹
huPA-H99Y [2]
  Kd: 5.04 ± 1.61 µM
muPA
  k off, muPA: 3.64±1.03 (6) s^−1, ×10^2
  k on, muPA: 0.914±0.250 (6) M^−1s^−1, ×10^−5
huPA-H99Y K143A
  Ki: 56.6 ± 8 µM
huPA-H99Y R35A
  Ki: 39.5 ± 2.9 µM
muPA K143A
  Ki: 4.88 ± 0.35 µM
muPA V213T
  Ki: 0.246 ± 0.044 µM
huPA-H99Y Q192A
  Ki: 33.2 ± 4.2 µM
muPA S190A
  Ki: 1.6 ± 0.53 µM
muPA wt; introduction, read-out: K i value for inhibition of muPA
  Ki: ~0.5 µM
muPA Y99A
  Ki: 26 ± 5.8 µM
huPA-H99Y [3]
  Ki: 15.3 ± 2 µM
huPA-H99Y V41A
  Ki: 32.4 ± 5.3 µM
muPA K41A
  Ki: 4.29 ± 0.15 µM

## CC(=O)N[C@H]1CSSC[C@@H](C(N)=O)NC(=O)[C@H](CC(=O)O)NC(=O)[C@H](CC(C)C)NC(=O)[C@H](Cc2ccc(O)cc2)NC(=O)[C@H](CC2CCN(C(=N)N)CC2)NC(=O)[C@H](CO)NC(=O)[C@H](Cc2ccc(O)cc2)NC(=O)[C@H](C)NC(=O)[C@@H]2CCCN2C1=O [Mupain-1-16, CPAYS[L-3-(N-amidino-4-piperidyl)alanine]YLDC] (Ac-CPAYS[Ala(1-amidino-4-piperidyl)]YLDC-NH2; disulfide 1-10)
huPA-H99Y [1]; 25°C, pH 7.4
  k off, huPA-H99Y: 8.93±0.46 (4) s^-1, ×10^2
  k on, huPA-H99Y: 1.07±0.15 (4) M^-1s^-1, ×10^-5
huPA-H99Y [1]; 25°C, pH 7.4, calculated as k off/k on, read-out: K D, huPA-H99Y
  Kd: 0.844 ± 0.132 µM
huPA-H99Y [1]; huPA-H99Y immobilized on CM5 chip, single example (S3 Fig), read-out: KD of fitted curve, representative sensorgram
  Kd: 0.92 µM
huPA-H99Y [1]; [4]
  koff: 0.0929 s⁻¹
  kon: 101000 M⁻¹ s⁻¹
muPA
  k off, muPA: 0.671±0.119 (3) s^−1, ×10^2
  k on, muPA: 0.898±0.545 (3) M^−1s^−1, ×10^−5
huPA-H99Y K143A; 37°C, means ± S.D., read-out: K i for inhibition of huPA-H99Y-K143A
  Ki: 1.13 ± 0.32 µM
huPA-H99Y R35A; 37°C, means ± S.D., read-out: K i for inhibition of huPA-H99Y-R35A
  Ki: 2.5 ± 0.29 µM
muPA K143A
  Ki: 0.13 ± 0.02 µM
muPA V213T; means ± S.D., read-out: K i for inhibition of muPA-V213T
  Ki: 0.013 ± 0.003 µM
huPA-H99Y Q192A; 37°C, means ± S.D., read-out: K i for inhibition of huPA-H99Y-Q192A
  Ki: 2.71 ± 0.28 µM
muPA S190A; means ± S.D., read-out: K i for inhibition of muPA-S190A
  Ki: 0.352 ± 0.04 µM
muPA wt; means ± S.D., starred values reproduced from previous publications, ref Andersen et al., 2008, Hosseini et al., 2011, read-out: K i for inhibition of muPA wt
  Ki: 0.045 ± 0.01 µM
muPA Y99A; means ± S.D., read-out: K i for inhibition of muPA-Y99A
  Ki: 1.24 ± 0.44 µM
huPA-H99Y [3]
  Ki: 2.48 ± 0.07 µM
huPA-H99Y V41A; 37°C, means ± S.D., read-out: K i for inhibition of huPA-H99Y-V41A
  Ki: 1.95 ± 0.3 µM
muPA K41A; means ± S.D., read-out: K i for inhibition of muPA-K41A
  Ki: 0.3 ± 0.05 µM
